Series [1] deals with T1, human adenosine A2b receptor (Homo sapiens, UniProt P29275).
T1 construct: expressed in transfected cells; host or cells: CHO cells, co-transfected with the pCRE-LUCI reporter plasmid
T1 sequence (P29275 1-332): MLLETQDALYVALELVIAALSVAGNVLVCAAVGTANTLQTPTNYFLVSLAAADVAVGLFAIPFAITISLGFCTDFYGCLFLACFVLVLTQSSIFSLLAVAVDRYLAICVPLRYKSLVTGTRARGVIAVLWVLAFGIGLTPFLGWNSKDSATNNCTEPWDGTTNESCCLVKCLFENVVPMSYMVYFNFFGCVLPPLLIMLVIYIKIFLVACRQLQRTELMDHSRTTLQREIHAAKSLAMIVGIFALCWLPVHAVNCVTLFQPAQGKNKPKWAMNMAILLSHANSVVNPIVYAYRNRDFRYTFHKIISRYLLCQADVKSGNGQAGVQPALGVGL
Put plainly: Adenosine A2b receptor reporter gene assay (luciferase, CHO-A2b cells). Format: cell-based. The settings on record: CHO cells transfected with human A2b receptor and pCRE-LUCI; NECA as agonist; KB from shift of the curve at 100 nM or 1 μM antagonist. How it is done:
Adenosine A2b Receptor Reporter Gene Assay a) Culturing of Chinese Hamster Ovary (CHO) A2b Cell Line
CHO cells transfected with a Luciferase-expressing reporter plasmid (pCRE-LUCI) and with a plasmid carrying the human adenosine A2b receptor structural gene (pA2bRCV) are routinely cultured in Dulbecco's Modified Eagle Medium (DMEM)—supplemented with 10% v/v fetal calf serum (FCS), 2 mM L-glutamine, 0.4 mg/ml L-proline, 1 nM sodium selenite, 0.5 mg/ml Hygromycin B and 1 mg/ml Geneticin—at 37° C., 5% CO2 and 100% humidity. The cells are left to grow to confluence for 4–5 days. The cells obtained are passaged using trypsin/EDTA and split at a ratio of 1 in 5. […]
b) Preparation of Cells for Assay
Prior to the assay, the CHO-A2b cells are plated onto white 96-well View Plate tissue culture plates (Packard) at a density of 50,000 cells per well in […] of DMEM, and the plates are incubated at 37° C., 5% CO2 and 100% humidity. […]
c) Preparation of Reference and Test Compounds
10 mM solutions of the reference compound, Xanthine Amine Cogener (XAC), and the test compound in dimethyl sulfoxide (DMSO) are prepared. The solutions are further diluted with DMSO to 100 μM, then diluted to 10 μM, and finally to 250 nM or 2.5 μM with Assay Buffer (DMEM Phenol Red-free tissue culture media supplemented with 10 μM Rolipram and 10 U/ml adenosine deaminase (ADA). The resulting solutions (40 μl) are added to the cells in the appropriate wells, the final concentration per well being 100 nM or 1 μM, and the plates are incubated at 37° C., 5% CO2 and 100% humidity. […]
d) Luciferase Reporter Gene Assay
5′-N-ethylcarboxamidoadenosine (NECA), an adenosine A2b agonist, is prepared as a […] solution in DMSO and then diluted to 100 μM with Assay Buffer. This solution is serially diluted in Assay Buffer to give a series of 10 NECA concentrations from 100 to 0.01 μM. 10 μl portions of the resulting NECA solutions are added to the mixtures of CHO-A2b cells and reference or test compound solutions prepared as described above (preincubated for 30 minutes), final concentrations ranging from 10 to 0.0005 μM per well. The cells are incubated at 37° C., 5% CO2 and 100% humidity for 3 hours to induce release of cAMP, which then binds to cAMP binding protein (CBP) and the resulting complex interacts with the reporter plasmid to express Luciferase. 100 μl of Steady-Glo, a Luciferase assay substrate from Promega, is added to all wells to lyse the cells and generate luminescence in proportion to the amount of Lucifrease produced. The plates are left for a minimum of 5 minutes before being read on the luminescence program of a Topcount NXT microplate scintillation counter (ex Packard). Concentration—response curves are plotted from the luminescence data using Activitybase software and KB values for the antagonists under test are calculated from the shifts of the curve at a particular concentration (KB=[antagonist]/(concentration ratio−1)

Series [2] deals with T2, adenosine A3 receptor (Homo sapiens, UniProt P0DMS8).
T2 sequence (P0DMS8 1-318): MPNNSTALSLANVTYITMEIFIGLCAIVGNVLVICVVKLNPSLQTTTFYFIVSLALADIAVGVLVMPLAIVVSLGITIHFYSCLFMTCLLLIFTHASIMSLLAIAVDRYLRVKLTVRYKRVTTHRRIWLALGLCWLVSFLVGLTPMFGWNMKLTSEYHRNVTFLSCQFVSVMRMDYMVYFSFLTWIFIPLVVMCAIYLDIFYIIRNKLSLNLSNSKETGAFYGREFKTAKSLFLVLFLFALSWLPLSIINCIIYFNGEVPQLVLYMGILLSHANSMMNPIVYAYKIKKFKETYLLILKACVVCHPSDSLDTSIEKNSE

Where [3] appears, read: read-out: KI value in adenosine A3 receptor assay, assay as described in WO 99/64418.

Like-named read-outs stand apart in the source and are kept apart here.

Six compounds from patent publication US7109202B2, “Aminothaizoles and their use as adenosine receptor antagonists” (Novartis AG, priority 2000, dated 2006) can be followed below.

Compound `COc1ccc(C(=O)Nc2nc(-c3cccc(C#N)c3)c(-n3cncn3)s2)cc1` [Example 12, N-[4-(3-Cyano-phenyl)-5-[1,2,4]triazol-1-yl-thiazol-2-yl]-4-methoxy-benzamide] registered a melting point of 292 to 294 °C. In series [1], the Kb came out at 31 nM.
Consider `Cc1cccc(Nc2nc(-c3cccc(C#N)c3)c(-n3cncn3)s2)n1` [Example 15, 3-[2-(6-Methyl-pyridin-2-ylamino)-5-[1,2,4]triazol-1-yl-thiazol-4-yl]-benzonitrile], for which the Kb in series [1] was found to be 20 nM.
Regarding `N#Cc1cccc(-c2nc(Nc3cnccn3)sc2-n2cncn2)c1` [Example 27, (3-[2-(Pyrazin-2-ylamino)-5-[1,2,4]triazol-1-yl-thiazol-4-yl]-benzonitrile)], the Kb in series [1] is 10 nM. In addition, the Ki in series [2] (setting [3]) came out at 16 nM.
Compound `Cn1cccc1C(=O)Nc1nc(-c2cccc(C#N)c2)c(-n2cncn2)s1` [Example 36, 1-Methyl-1H-pyrrole-2-carboxylic Acid [4-(3-cyano-phenyl)-5-[1,2,4]triazol-1-yl-thiazol-2-yl]-amide] registered a melting point of 245 to 247 °C. For the same compound, in series [1], the Kb is 17 nM.
As for `COCCOc1cncc(Nc2nc(-c3cccc(C#N)c3)c(-n3cncn3)s2)n1` [Example 38], the Kb in series [1] was found to be 12 nM. The Ki in series [2] came out at 4 nM.
Regarding “(3-[5-(2-Methyl-imidazol-1-yl)-2-(pyrazin-2-ylamino)-triazol-4-yl]-benzonitrile) [Example 35]”, in series [1], the antagonist dissociation constant (Kb) was 4 nM. Also, in series [2] (setting [3]), the Ki worked out at 10 nM.

By Kb is commonly meant the equilibrium dissociation constant of an antagonist, usually derived from a functional assay. One may read the melting point as the temperature, or range, at which the solid turns liquid. By Ki is commonly meant a measure of affinity in units of concentration, obtained from inhibition or displacement.
